Data taken from patent US20240246964A1 (Arbutus Biopharma Corporation, priority 2021, published 2024).
pEC50, pIC50: −log10 of the molar value. One block for each molecule: values may come before it.

Assays:
[1] = biological target: PD-L1 His protein / PD-1 Fc protein (Homo sapiens (Human), UniProt Q9NZQ7); experiment: HTRF Assay (PD-1/PD-L1 interaction); assay type: binding; settings: PD-L1 His 6 nM, PD-1 Fc 6 nM
human PD-L1 = human PD-L1 (Homo sapiens (Human), UniProt Q9NZQ7); experiment: T cell activation luciferase reporter cell culture system (T Cell Activation Assay); assay type: cell-based; settings: luciferase reporter assay; PD-L1 aAPC/CHO-K1 cells with PD-1 effector Jurkat T cells
Sequence of human PD-L1 (Q9NZQ7 19-290): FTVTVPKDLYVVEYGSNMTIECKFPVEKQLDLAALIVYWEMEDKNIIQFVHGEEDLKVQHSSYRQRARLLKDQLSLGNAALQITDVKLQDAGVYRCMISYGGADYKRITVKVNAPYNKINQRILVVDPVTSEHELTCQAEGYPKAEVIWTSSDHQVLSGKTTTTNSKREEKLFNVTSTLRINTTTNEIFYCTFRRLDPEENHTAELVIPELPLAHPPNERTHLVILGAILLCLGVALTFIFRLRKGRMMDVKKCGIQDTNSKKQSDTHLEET

Sequence of PD-L1 His protein / PD-1 Fc protein (Q9NZQ7 19-238): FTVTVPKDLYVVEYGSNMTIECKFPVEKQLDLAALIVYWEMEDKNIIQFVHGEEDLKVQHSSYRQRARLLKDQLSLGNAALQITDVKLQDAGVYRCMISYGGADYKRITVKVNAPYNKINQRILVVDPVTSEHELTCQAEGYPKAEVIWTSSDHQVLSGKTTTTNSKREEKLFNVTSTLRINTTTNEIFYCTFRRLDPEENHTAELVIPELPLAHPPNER

Compound: COc1nc(-c2cccc(-c3ccnc(-c4ccc5c(c4)CN(CCNC[C@@H]4CCC(=O)N4)C5=O)c3Cl)c2Cl)ccc1CN1CC2(C1)CN(C(C)=O)C2 [Compound 144, (S)-5-(4-(3-(5-((6-acetyl-2,6-diazaspiro[3.3]heptan-2-yl)methyl)-6-methoxypyridin-2-yl)-2-chlorophenyl)-3-chloropyridin-2-yl)-2-(2-(((5-oxopyrrolidin-2-yl)methyl)amino)ethyl)isoindolin-1-one]
pIC50 [1]: 8.57
pEC50 (human PD-L1): ≤ 5.00

Compound: CNCc1ccc(-c2nccc(-c3cccc(-c4ccc(CNC)c(OC)n4)c3Cl)c2Cl)cc1OC [Compound 136, 1-(6-(2-chloro-3-(3-chloro-2-(3-methoxy-4-((methylamino)methyl)phenyl)pyridin-4-yl)phenyl)-2methoxypyridin-3-yl)-N-methylmethanamine]
pIC50 [1]: 9.15
pEC50 (human PD-L1): 7.79

Compound: COc1cc(-c2nccc(-c3cccc(-c4ccc(CNC[C@@H]5CCC(=O)N5)c(OC)n4)c3Cl)c2Cl)cc(C)c1CN(C)C[C@H](C)O [Compound 118, (S)-5-((((6-(2-chloro-3-(3-chloro-2-(4-((((S)-2-hydroxypropyl)(methyl)amino)methyl)-3-methoxy-5-methylphenyl)pyridin-4-yl)phenyl)-2-methoxypyridin-3-yl)methyl)amino)methyl)pyrrolidin-2-one]
pIC50 [1]: 8.80
pEC50 (human PD-L1): 7.36

Compound: COc1cc(-c2nccc(-c3cccc(-c4ccc(CN[C@@H]5CCC(=O)NC5)c(OC)n4)c3Cl)c2Cl)ccc1CNC1CCN(C(C)=O)CC1 [Example 541, (R)-5-(((6-(3-(2-(4-(((1-Acetylpiperidin-4-yl)amino)methyl)-3-methoxyphenyl)-3-chloropyridin-4-yl)-2-chlorophenyl)-2-methoxypyridin-3-yl)methyl)amino)piperidin-2-one]
pIC50 [1]: 9.10
pEC50 (human PD-L1): 7.03

Compound: CNCc1ccc(-c2cccc(-c3ccnc(-c4ccc5c(c4)CNC5)c3Cl)c2Cl)nc1OC [Compound 159, 1-(6-(2-chloro-3-(3-chloro-2-(isoindolin-5-yl)pyridine-4-yl)phenyl)-2-methoxypyridin-3-yl)-N-methylmethanamine]
pIC50 [1]: 8.87
pEC50 (human PD-L1): ≤ 5.00

Compound: COc1cc(-c2cncc(-c3cccc(-c4ccc(CNC5CCN(C(C)=O)CC5)c(OC)n4)c3Cl)c2Cl)ccc1CNC1CCN(C(C)=O)CC1 [Compound 641, 1-(4-(((6-(3-(5-(4-(((1-Acetylpiperidin-4-yl)amino)methyl)-3-methoxyphenyl)-4-chloropyridin-3-yl)-2-chlorophenyl)-2-methoxypyridin-3-yl)methyl)amino)piperidin-1-yl)ethan-1-one]
pIC50 [1]: 10.05
pEC50 (human PD-L1): 6.97

Compound: COc1nc(-c2cccc(-c3ccnc(-c4cc5c(=O)n(C)c(CNC[C@H](C)O)nn5c4)c3Cl)c2Cl)ccc1CNC[C@@H]1CCC(=O)N1 [Compound 91, 6-(3-chloro-4-(2-chloro-3-(6-methoxy-5-(((((S)-5-oxopyrrolidin-2-yl)methyl)amino)methyl)pyridin-2-yl)phenyl)pyridin-2-yl)-2-((((S)-2-hydroxypropyl)amino)methyl)-3-methylpyrrolo[2,1-f][1,2,4]triazin-4(3H)-one]
pIC50 [1]: 8.36
pEC50 (human PD-L1): 6.65

Compound: COc1nc(-c2cccc(-c3ccnc(-c4cc(OC)c5nc(CN6CC7(CNC(=O)C7)C6)cn5c4)c3Cl)c2Cl)ccc1CNC[C@@H]1CCC(=O)N1 [Example 314, (S)-2-((6-(3-Chloro-4-(2-chloro-3-(6-methoxy-5-((((5-oxopyrrolidin-2-yl)methyl)amino)methyl)pyridin-2-yl)phenyl)pyridin-2-yl)-8-methoxyimidazo[1,2-a]pyridin-2-yl)methyl)-2,6-diazaspiro[3.4]octan-7-one]
pIC50 [1]: 8.79
pEC50 (human PD-L1): 7.16

Compound: COc1cc(-c2nccc(-c3cccc(-c4cc(F)c(CNC[C@@H]5CCC(=O)N5)c(OC)n4)c3Cl)c2Cl)cc2c1CN(C[C@H](C)O)CC2 [Compound 176, (S)-5-((((6-(2-chloro-3-(3-chloro-2-(2-((S)-2-hydroxypropyl)-8-methoxy-1,2,3,4-tetrahydroisoquinolin-6-yl)pyridine-4-yl)phenyl)-4-fluoro-2-methoxypyridin-3-yl)methyl)amino)methyl)pyridine1334ne-2-one]
pIC50 [1]: 8.98
pEC50 (human PD-L1): 8.00

Compound: COc1cc(-c2nccc(-c3cccc(-c4ccc(CN5CC6(CNC(=O)C6)C5)c(OC)n4)c3Cl)c2Cl)cnc1CN1CC2(CNC(=O)C2)C1 [Compound 376, 2-((3-Chloro-4-(2-chloro-3-(6-methoxy-5-((7-oxo-2,6-diazaspiro[3.4]octan-2-yl)methyl)pyridin-2-yl)phenyl)-5′-methoxy-[2,3′-bipyridin]-6′-yl)methyl)-2,6-diazaspiro[3.4]octan-7-one]
pIC50 [1]: 9.34
pEC50 (human PD-L1): 7.42

Compound: COc1cc(-c2nccc(-c3cccc(-c4ccc(CNC5CCN(C(C)=O)CC5)c(OC)n4)c3F)c2F)ccc1CNC1CCN(C(C)=O)CC1 [Example 449, 1-(4-(((6-(3-(2-(4-(((1-acetylpiperidin-4-yl)amino)methyl)-3-methoxyphenyl)-3-fluoropyridin-4-yl)-2-fluorophenyl)-2-methoxypyridin-3-yl)methyl)amino)piperidin-1-yl)ethan-1-one]
pIC50 [1]: 7.89
pEC50 (human PD-L1): ≤ 5.00

Compound: COc1nc(-c2cccc(-c3ccnc(-c4cc(OC)c5nc(CN6CC7(C6)CN(C(C)=O)C7)nn5c4)c3Cl)c2Cl)ccc1CNC(C)C [Compound 767, 1-(6-((6-(3-Chloro-4-(2-chloro-3-(5-((isopropylamino)methyl)-6-methoxypyridin-2-yl)phenyl)pyridin-2-yl)-8-methoxy-[1,2,4]triazolo[1,5-a]pyridin-2-yl)methyl)-2,6-diazaspiro[3.3]heptan-2-yl)ethan-1-one]
pIC50 [1]: 9.62
pEC50 (human PD-L1): 7.04

Compound: COc1nc(-c2cccc(-c3nccc(-c4ccc(CNC5CCN(C(C)=O)CC5)c(OC)n4)c3Cl)c2Cl)ccc1CN1CCC(O)CC1 [Example 774, 1-(4-(((3′-Chloro-2′-(2-chloro-3-(5-((4-hydroxypiperidin-1-yl)methyl)-6-methoxypyridin-2-yl)phenyl)-6-methoxy-[2,4′-bipyridin]-5-yl)methyl)amino)piperidin-1-yl)ethan-1-one]
pIC50 [1]: 8.84
pEC50 (human PD-L1): 7.89

Compound: COc1cc(-c2nccc(-c3cccc(-c4ccc(CNC5CCC(F)(F)CC5)c(OC)n4)c3Cl)c2Cl)ccc1CNC1CCC(F)(F)CC1 [Example 327, N-((6-(2-Chloro-3-(3-chloro-2-(4-(((4,4-difluorocyclohexyl)amino)methyl)-3-methoxyphenyl)pyridin-4-yl)phenyl)-2-methoxypyridin-3-yl)methyl)-4,4-difluorocyclohexan-1-amine]
pIC50 [1]: 8.77
pEC50 (human PD-L1): 6.75

Compound: COc1nc(-c2cccc(-c3ccnc(-c4ccc5c(c4)CN(CCNC[C@@H]4CCC(=O)N4)C5=O)c3Cl)c2Cl)ccc1CNC[C@H](C)O [Compound 142, 5-(3-chloro-4-(2-chloro-3-(5-((((S)-2-hydroxypropyl)amino)methyl)-6-methoxypyridin-2-yl)phenyl)pyridin-2-yl)-2-(2-((((S)-5-oxopyrrolidin-2-yl)methyl)amino)ethyl)isoindolin-1-one]
pIC50 [1]: 8.18
pEC50 (human PD-L1): 5.47

Compound: COc1nc(-c2cccc(-c3ccnc(-c4ccc5c(CN(C)CCO)nn(C)c5c4)c3Cl)c2Cl)ccc1CNC[C@@H]1CCC(=O)N1 [Example 247, (S)-5-((((6-(2-Chloro-3-(3-chloro-2-(3-(((2-hydroxyethyl)(methyl)amino)methyl)-1-methyl-1H-indazol-6-yl)pyridin-4-yl)phenyl)-2-methoxypyridin-3-yl)methyl)amino)methyl)pyrrolidin-2-one]
pIC50 [1]: 8.17
pEC50 (human PD-L1): 7.28

Compound: COc1nc(-c2cccc(-c3ccnc(-c4ccc5c(CN(C)C6CCN(C(C)=O)CC6)cn(C)c5c4)c3Cl)c2Cl)ccc1CNC[C@@H]1CCC(=O)N1 [Compound 56, (S)-5-((((6-(3-(2-(3-(((1-acetylpiperidin-4-yl)(methyl)amino)methyl)-1-methyl-1H-indol-6-yl)-3-chloropyridin-4-yl)-2-chlorophenyl)-2-methoxypyridin-3-yl)methyl)amino)methyl)pyrrolidin-2-one]
pIC50 [1]: 8.40
pEC50 (human PD-L1): 7.43

Compound: COc1cc(-c2nccc(-c3cccc(-c4ccc(CNC[C@@H]5CCC(=O)N5)c(OC)n4)c3Cl)c2Cl)ccc1CN[C@@H](C)C(=O)O [Compound 130, (4-(3-chloro-4-(2-chloro-3-(6-methoxy-5-(((((S)-5-oxopyrrolidin-2-yl)methyl)amino)methyl)pyridin-2-yl)phenyl)pyridin-2-yl)-2-methoxybenzyl)-L-alanine]
pIC50 [1]: 9.68
pEC50 (human PD-L1): 6.80

pIC50 [1]: 7.84
pEC50 (human PD-L1): ≤ 5.00
Compound: COc1cc(-c2nccc(-c3cccc(-c4ccc5c(OC)c(CNC6CCN(C(C)=O)CC6)cc(Cl)c5n4)c3Cl)c2Cl)ccc1CNC[C@@H]1CCC(=O)N1 [Example 241, (S)-5-(((4-(4-(3-(6-(((1-Acetylpiperidin-4-yl)amino)methyl)-8-chloro-5-methoxyquinolin-2-yl)-2-chlorophenyl)-3-chloropyridin-2-yl)-2-methoxybenzyl)amino)methyl)pyrrolidin-2-one]

Compound: COc1nc(-c2cccc(-c3nccc(-c4ccc(CNC5CCN(C(C)=O)CC5)c(OC)n4)c3Cl)c2Cl)ccc1CNC1CCN(C(C)=O)CC1 [Compound 572, 1-(4-(((6-(3-(5-(((1-Acetylpiperidin-4-yl)amino)methyl)-3′-chloro-6-methoxy-[2,4′-bipyridin]-2′-yl)-2-chlorophenyl)-2-methoxypyridin-3-yl)methyl)amino)piperidin-1-yl)ethan-1-one]
pIC50 [1]: 9.72
pEC50 (human PD-L1): 7.76

Compound: COc1nc(-c2ccnc(-c3cccc4c3CCC[C@@H]4Nc3nc(OC)c(CN4CC5(CNC(=O)C5)C4)cc3C(F)(F)F)c2Cl)ccc1CNC[C@@H]1CCC(=O)N1 [Example 720, 2-((6-(((S)-5-(3′-Chloro-6-methoxy-5-(((((S)-5-oxopyrrolidin-2-yl)methyl)amino)methyl)-[2,4′-bipyridin]-2′-yl)-1,2,3,4-tetrahydronaphthalen-1-yl)amino)-2-methoxy-5-(trifluoromethyl)pyridin-3-yl)methyl)-2,6-diazaspiro[3.4]octan-7-one]
pIC50 [1]: 7.46
pEC50 (human PD-L1): ≤ 5.00
